These results are taken from article PMC7894426, “Influence of verapamil on the pharmacokinetics of rotundic acid in rats and its potential mechanism” (Pharmaceutical Biology, 2021).

The conditions of series [1]: rats, oral administration; ref Nan et al. [2016]; cited from earlier work.
The nature of series [2]: Metabolic stability in rat liver microsomes with or without verapamil. It is filed as in vitro ADME. Conditions: rat, liver microsomes, RLMs 1 mg/mL, RA 2 µM; for k el at 2 µM: read-out: ke (converted). Here is the method: (§1) Low metabolic stability is a major barrier to further improve the oral bioavailability of the herb drugs. To gauge the medicinal chemistry value of RA, we evaluated their metabolic stability in RLMs with or without verapamil. The in vitro microsomal stability assay was conducted in triplicate in rat liver microsomal systems, which were supplemented with NADPH as a cofactor. The assay conditions and reaction mixtures were similar to the previous report with minor modifications (Li et al. [2016]; Sun et al. [2019]). Briefly, the incubation system (final volume of 1 mL) consisted of 1 mg/mL rat liver microsomal protein, 1 mM NADPH, and 5 mM MgCl2 in 0.1 M sodium phosphate buffer (pH 7.4). The incubation system was pre-incubated at 37 °C for 15 min and initiated by adding RA methanol solution (final concentration of 2 µM). The effects of verapamil on the metabolic stability of RA were investigated by adding 50 µM of verapamil (Ma et al. [2000]; Lee and Kim [2013]; Dinger et al. [2014]) to RLMs and pre-incubating for 15 min at 37 °C. The final concentration of methanol (used for dissolving the substrate and inhibitor) was lower than 1% (v/v). Negative control was performed in parallel in a heat-inactivated liver microsomes incubation system to measure any chemical instability or non-enzymatic degradation. Aliquots of 50 µL incubation solution were collected from the reaction at 0, 5, 15, 30 and 60 min, and quenched with 50 µL ice-cold methanol (containing 0.5% formic acid) and 100 µL ice-cold acetonitrile containing IS (10 ng/mL). The samples were then vortexed for 1 min and centrifuged at 12,000 rpm for 10 min at 4 °C. The supernatants were collected and analyzed by LC-MS/MS.
(§2) Substrate depletion and in vitro half-life (t1/2) are common descriptors for metabolic stability. The t1/2 is calculated by the substrate disappearance. The obtained concentration value for time t is divided by the value for time zero and then multiplied by a factor of 100, which represents the ‘% Remaining’ to provide the relative remaining substrate level for the time t. The natural logarithm (ln) of the ‘% Remaining’ of RA was plotted against the incubation time (in min) using linear regression.
(§3) Where, ke, the elimination rate constant, is the slope of a linear regression curve in a semilog plot. Data were collected from triplicate experiments.
On the technique in general: Liver microsomes are vesicles of endoplasmic reticulum, rich in cytochrome P450 enzymes.

For another series, the system named is rat liver microsomes. Described as above. It is filed as in vitro ADME. Conditions: heat-inactivated microsomes, RA 2 µM. The protocol:
as §1, §2, §3

Where [3] appears, read: pH 7.4, with verapamil 50 µM, pre-treatment of verapamil 50 µM.

Like-named read-outs stand apart in the source and are kept apart here.

By half-life is commonly meant how long it takes for the measured level to halve. As usually defined, the microsomal CLint is the rate of metabolic loss divided by the concentration.

Take `C[C@@H]1CC[C@]2(C(=O)O)CC[C@]3(C)C(=CC[C@@H]4[C@@]5(C)CC[C@H](O)[C@@](C)(CO)[C@@H]5CC[C@]43C)[C@@H]2[C@]1(C)O` [RA, Rotundic acid]: the oral bioavailability in series [1] is listed as 4.52%. In addition, in series [2] (setting [3]), the half-life at 2 µM worked out at 58.2 ± 5.17 min, the microsomal CLint at 2 µM was found to be 12 ± 1.06 µL/min/mg and the k el at 2 µM is 0.0002 s⁻¹. In series [2] (pH 7.4, control), the half-life at 2 µM amounted to 14.3 ± 0.941 min, the microsomal CLint at 2 µM came out at 48.5 ± 3.18 µL/min/mg and the k el at 2 µM was 0.000808 s⁻¹. For the same molecule, the “degradation in negative control” value with rat liver microsomes is “No obvious degradation”.
